Structures are written as SMILES.

The assay relates to Erysiphe graminis. Put plainly: Test for preventive effect on wheat powdery mildew. The assay is classed as in vivo. Particulars: wheat (Norin-61-go) seedlings, 500 ppm active ingredient, preventive treatment; diseased area of first leaves 10 days after inoculation with Erysiphe graminis. Here is the method: Test for Preventive Effect on Wheat Powdery Mildew 9 Wheat seeds (variety: Norin-61-go) were sown in each 9 cm×9 cm polyvinyl chloride pot, grown in a greenhouse for 8 days, then treated with 10 ml per pot of aqueous solutions of wettable powders prepared in accordance with Formulation Example 2, at a concentration of 500 ppm in terms of the active ingredients and dried in the air. Then, the seedlings were inoculated with Erysiphe graminis spores by sprinkle over the plant and placed in a greenhouse of from 20 to 25° C. 10 days after the inoculation, the total diseases area of the first leaves in each pot was observed and evaluated on the basis of the standards shown in Table 67. [table]
With `CNc1nc2ccccc2n1-c1nc(OC)cc(OC)n1` [Compound I-29], the Biological effectiveness result is reported as “B (Diseased area of less than 25%)”.

As to `COc1nc(OC)nc(-n2c(C)nc3cc(C)ccc32)n1` [Compound I-218], the Biological effectiveness entry is recorded as “A (No diseased area)”. Turning to `CCc1cc(C)nc(-n2cnc3ccccc32)n1` [Compound I-1085], the Biological effectiveness entry was “A (No diseased area)”. On to `Cc1nc2cc(Cl)ccc2n1-c1nc(N(C)C)nc(N(C)C)n1` [Compound I-1071], for which the Biological effectiveness entry is “A (No diseased area)”. In the case of `COc1cc(OC)nc(-n2c(C(Cl)(Cl)Cl)nc3ccccc32)n1` [Compound I-25], the Biological effectiveness entry is recorded as “A (No diseased area)”. `COc1cc(OC)nc(-n2c(C(F)(F)F)nc3cc(C(F)(F)F)ccc32)n1` [Compound I-299]: the Biological effectiveness entry is listed as “A (No diseased area)”. Consider `COc1cc(OC)nc(-n2c(C)nc3cc(C(F)(F)F)ccc32)n1` [Compound I-188], for which the Biological effectiveness result was “A (No diseased area)”. `COc1cc(OC)nc(-n2c(-c3ccc(Cl)cc3)nc3ccccc32)n1` [Compound I-35]: the Biological effectiveness entry is “B (Diseased area of less than 25%)”. The result for `CCCc1nc(OC)nc(-n2c(C)nc3cc(C)ccc32)n1` [Compound I-999] reads “A (No diseased area)”; that for `COc1cc(OC)nc(-n2c(Cl)nc3cc(OC(F)(F)F)ccc32)n1` [Compound I-263], “A (No diseased area)”. As for `CCOc1nc(OCC)nc(-n2c(C(Cl)(Cl)Cl)nc3cc(Cl)ccc32)n1` [Compound I-550], the Biological effectiveness result is reported as “A (No diseased area)”. Take `COc1nc(OC)nc(-n2c(C)nc3c(C)cc(C)cc32)n1` [Compound I-250]: the Biological effectiveness entry is given as “B (Diseased area of less than 25%)”.

For the molecule `CCc1nc2cc(Cl)ccc2n1-c1nc(OC)nc(OC)n1` [Compound I-346], the Biological effectiveness result is “A (No diseased area)”. For the molecule `COc1nc(OC)nc(-n2c(C)nc3ccc(C)cc32)n1` [Compound I-242], the Biological effectiveness result is on record as “A (No diseased area)”. Take `CCOc1cc(C)nc(-n2cnc3ccccc32)n1` [Compound I-768]: the Biological effectiveness result was “A (No diseased area)”. Regarding `COc1nc(OC)nc(-n2c(Cl)nc3ccccc32)n1` [Compound I-41], the Biological effectiveness entry was “A (No diseased area)”. The result for `CCOc1nc(OCC)nc(-n2cnc3cc(Br)ccc32)n1` [Compound I-490] reads “A (No diseased area)”; that for `CCCc1cc(OC)nc(-n2cnc3cc(C)ccc32)n1` [Compound I-962], “A (No diseased area)”; that for `COc1nc(OC)nc(-n2c(C(F)(F)F)nc3cc(F)ccc32)n1` [Compound I-309], “A (No diseased area)”. The result for `COc1cc(OC)nc(-n2c(C)nc3cc(Cl)ccc32)n1` [Compound I-184] reads “A (No diseased area)”; that for `COc1ccc2c(c1)nc(N)n2-c1nc(OC)cc(OC)n1` [Compound I-364], “A (No diseased area)”. `CCOc1cc(OCC)nc(-n2c(C)nc3cc(Cl)ccc32)n1` [Compound I-499]: the Biological effectiveness entry is “A (No diseased area)”.

As to `COc1cc(OC)nc(-n2c(C)nc3ccc(Cl)cc32)n1` [Compound I-201], the Biological effectiveness entry is “A (No diseased area)”. In the case of `CCOc1cc(C)nc(-n2cnc3cc(C)ccc32)n1` [Compound I-772], the Biological effectiveness entry is “A (No diseased area)”. For `COc1nc(OC)nc(-n2c(C(F)(F)F)nc3cc(I)ccc32)n1` [Compound I-327], the Biological effectiveness entry is given as “A (No diseased area)”. The result for `COc1ccnc(-n2c(C(F)(F)F)nc3cc(Cl)ccc32)n1` [Compound I-682] reads “A (No diseased area)”; that for `COc1nc(OC)nc(-n2c(C)nc3ccccc32)n1` [Compound I-45], “A (No diseased area)”; that for `COc1nc(OC)nc(-n2c(C(F)(F)F)nc3ccccc32)n1` [Compound I-66], “A (No diseased area)”.

On to `COc1nc(OC)nc(-n2c(Cl)nc3cc(C)ccc32)n1` [Compound I-279], for which the Biological effectiveness result is reported as “A (No diseased area)”. As to `CCCc1cc(OC)nc(-n2c(C)nc3cc(Cl)ccc32)n1` [Compound I-964], the Biological effectiveness result is “B (Diseased area of less than 25%)”. Take `COc1cc(OC)nc(-n2c(C)nc3cc(OC(F)(F)F)ccc32)n1` [Compound I-192]: the Biological effectiveness entry is reported as “B (Diseased area of less than 25%)”. As for `CCOc1ccc2c(c1)nc(C(F)(F)F)n2-c1nc(OC)cc(OC)n1` [Compound I-301], the Biological effectiveness entry was “A (No diseased area)”. For the molecule `COc1nc(OC)nc(-n2c(C)nc3c(C)cccc32)n1` [Compound I-212], the Biological effectiveness entry is “B (Diseased area of less than 25%)”. The result for `COc1nc(OC)nc(-n2c(N(C)C)nc3cc(Cl)ccc32)n1` [Compound I-376] reads “B (Diseased area of less than 25%)”; that for `C#CCOc1cc(C)nc(-n2cnc3cc(C)ccc32)n1` [Compound I-895], “B (Diseased area of less than 25%)”.

As for `COc1nc(OC)nc(-n2c(C(Cl)(Cl)Cl)nc3cc(C)ccc32)n1` [Compound I-406], the Biological effectiveness result is “A (No diseased area)”. Regarding `COc1nc(OC)nc(-n2c(C)nc3cc(C(=O)c4ccccc4)ccc32)n1` [Compound I-235], the Biological effectiveness result is on record as “A (No diseased area)”. The result for `COc1cc(OC)nc(-n2c(C(F)(F)C(F)(F)F)nc3ccccc32)n1` [Compound I-27] reads “B (Diseased area of less than 25%)”; that for `COc1cc(OC)nc(-n2c(C(F)(F)F)nc3ccccc32)n1` [Compound I-26], “A (No diseased area)”. On to `CCOc1cc(OCC)nc(-n2cnc3cc(Cl)ccc32)n1` [Compound I-480], for which the Biological effectiveness result is reported as “A (No diseased area)”.

As to `CCOc1cc(OCC)nc(-n2cnc3cc(F)ccc32)n1` [Compound I-479], the Biological effectiveness entry is “A (No diseased area)”. With `CCCc1nc(OC)nc(-n2c(C(F)(F)F)nc3cc(C)ccc32)n1` [Compound I-1004], the Biological effectiveness result was “A (No diseased area)”.

Turning to `COc1cc(OC)nc(-n2cnc3ccc(Cl)cc32)n1` [Compound I-113], the Biological effectiveness result is on record as “B (Diseased area of less than 25%)”. The result for `COc1nc(OC)nc(-n2cnc3cc(C(C)C)ccc32)n1` [Compound I-136] reads “B (Diseased area of less than 25%)”; that for `COc1cc(OC)nc(-n2c(C#N)nc3ccccc32)n1` [Compound I-38], “B (Diseased area of less than 25%)”; that for `COc1nc(OC)nc(-n2c(C(C)C)nc3cc(Cl)ccc32)n1` [Compound I-359], “A (No diseased area)”. On to `COc1cc(OC)nc(-n2c(C(F)(F)F)nc3cc(F)ccc32)n1` [Compound I-295], for which the Biological effectiveness result is “A (No diseased area)”.

`COc1nc(OC)nc(-n2c(N)nc3cc(C)ccc32)n1` [Compound I-369]: the Biological effectiveness result is reported as “B (Diseased area of less than 25%)”. Turning to `CCOc1ccnc(-n2c(C)nc3cc(C)ccc32)n1` [Compound I-695], the Biological effectiveness entry was “A (No diseased area)”.

On to `CCCOc1cc(C)nc(-n2cnc3ccccc32)n1` [Compound I-804], for which the Biological effectiveness result is listed as “A (No diseased area)”. The result for `COc1cc(OC)nc(-n2c(N(C)C)nc3ccccc32)n1` [Compound I-30] reads “B (Diseased area of less than 25%)”. As for `CCOc1cc(OCC)nc(-n2c(C)nc3cc(OC)ccc32)n1` [Compound I-503], the Biological effectiveness entry is on record as “A (No diseased area)”. In the case of `COc1nc(OC)nc(-n2c(C(F)(F)F)nc3cc(C(C)(C)C)ccc32)n1` [Compound I-316], the Biological effectiveness result is on record as “B (Diseased area of less than 25%)”.

As to `COc1cc(OC)nc(-n2cnc3ccc(F)cc32)n1` [Compound I-112], the Biological effectiveness result is reported as “B (Diseased area of less than 25%)”. As to `COc1ccc2c(c1)nc(C(F)(F)F)n2-c1nc(OC)nc(OC)n1` [Compound I-318], the Biological effectiveness entry was “A (No diseased area)”. Regarding `CCOc1cc(OCC)nc(-n2c(Cl)nc3ccccc32)n1` [Compound I-458], the Biological effectiveness entry is on record as “A (No diseased area)”. As for `COC(=O)c1ccc2c(c1)nc(C)n2-c1nc(OC)nc(OC)n1` [Compound I-232], the Biological effectiveness entry is “B (Diseased area of less than 25%)”. For `CCOc1cc(OCC)nc(-n2c(C(F)(F)F)nc3ccccc32)n1` [Compound I-465], the Biological effectiveness result is given as “B (Diseased area of less than 25%)”. The result for `C#CCOc1cc(C)nc(-n2c(C(F)(F)F)nc3cc(C)ccc32)n1` [Compound I-903] reads “B (Diseased area of less than 25%)”; that for `COc1nc(OC)nc(-n2c(C)nc3cc(I)ccc32)n1` [Compound I-217], “A (No diseased area)”.

For the molecule `CCCOc1cc(C)nc(-n2c(C)nc3ccccc32)n1` [Compound I-806], the Biological effectiveness result is “B (Diseased area of less than 25%)”. The result for `COc1cc(OC)nc(-n2cnc3cc(Cl)ccc32)n1` [Compound I-83] reads “B (Diseased area of less than 25%)”. `COc1nc(OC)nc(-n2c(C)nc3cc(C(C)C)ccc32)n1` [Compound I-221]: the Biological effectiveness entry is given as “B (Diseased area of less than 25%)”. For the molecule `COc1nc(C)nc(-n2c(C(F)(F)F)nc3cc(C)ccc32)n1` [Compound I-762], the Biological effectiveness entry is on record as “A (No diseased area)”.

`COc1nc(C)nc(-n2c(C)nc3cc(C)ccc32)n1` [Compound I-752]: the Biological effectiveness entry is on record as “A (No diseased area)”.

The record behind these values is patent publication US6872729B2, “Pyrimidinylbenzimidazole and triazinylbenzimidazole derivatives and agricultural/horticultural fungicides” (Kumiai Chemical Industry Co., Ltd., priority 1998, dated 2005).
